What is called MIC is the smallest concentration in the dilution series that meets the test's criterion for growth inhibition.

Values after ≈ are worked out from the molar mass of the structure shown.

The results in this text go back to ChEMBL document CHEMBL2086335, “Three new 12-carbamoylated streptothricins from Streptomyces sp. I08A 1776” (2012).

Holding throughout (assay type): functional
The test system of experiment [1] is Mycobacterium tuberculosis. The experiment is described as follows: Antibacterial activity against Mycobacterium tuberculosis H37Rv by microbroth dilution method. In general terms: In broth dilution the organism is exposed to a series of concentrations in liquid medium.
The subject of the next experiment is Bacillus subtilis. The experiment is described as follows: Antibacterial activity against Bacillus subtilis ATCC 6633 by microbroth dilution method.
Another experiment has as its system Staphylococcus aureus. Put plainly: Antibacterial activity against Staphylococcus aureus ATCC 25923 by microbroth dilution method.
Another experiment relates to Escherichia coli. Put plainly: Antibacterial activity against Escherichia coli ATCC 25922 by microbroth dilution method.
The test system of another experiment is Enterococcus faecalis. Put plainly: Antibacterial activity against Enterococcus faecalis ATCC 29212 by microbroth dilution method.
For the next experiment, the system named is Pseudomonas aeruginosa. Put plainly: Antibacterial activity against Pseudomonas aeruginosa ATCC 27853 by microbroth dilution method.
Another experiment concerns Morganella morganii. Put plainly: Antibacterial activity against multidrug-resistant Morganella morganii 07-09 by microbroth dilution method.
The test system of experiment [2] is Mycolicibacterium smegmatis. Put plainly: Antibacterial activity against Mycobacterium smegmatis MC2 155 by microbroth dilution method. Particulars: str. MC2 155.
A further experiment deals with Candida albicans. Put plainly: Antifungal activity against Candida albicans ATCC 10231 by microbroth dilution method.

In the case of `NCCC[C@H](N)CC(=O)NCCC[C@H](N)CC(=O)N[C@@H]1[C@H](O)[C@@H](O)[C@@H](COC(N)=O)O[C@H]1/N=C1\N[C@@H]2[C@H](O)CNC(=O)[C@H]2N1`, the MIC in [1] was 16 µg/mL (≈ 25.4 µM); against Bacillus subtilis, 16 µg/mL (≈ 25.4 µM); against Staphylococcus aureus, above 256 µg/mL; against Escherichia coli, above 256 µg/mL; against Enterococcus faecalis it was above 256 µg/mL; against Pseudomonas aeruginosa, above 256 µg/mL. Further, the results for the MIC (with Morganella morganii; in experiment [2]; against Candida albicans) were above 256 µg/mL, 64 µg/mL (≈ 101 µM) and 32 µg/mL (≈ 50.7 µM), respectively.

Consider `CC(=O)N[C@@H](CCCNC(=O)C[C@@H](N)CCCN)CC(=O)N[C@@H]1[C@H](O)[C@@H](O)[C@@H](COC(N)=O)O[C@H]1/N=C1\N[C@@H]2[C@H](O)CNC(=O)[C@H]2N1`, for which the MIC was above 256 µg/mL in [1]; 128 µg/mL (≈ 190 µM) against Bacillus subtilis; above 256 µg/mL in the experiment on Staphylococcus aureus; above 256 µg/mL with Escherichia coli; above 256 µg/mL against Enterococcus faecalis; above 256 µg/mL with Pseudomonas aeruginosa. Further, the MIC (with Morganella morganii; in [2]; in the experiment with Candida albicans) was above 256 µg/mL throughout.

Regarding `CC(=O)N[C@@H](CCCNC(=O)C[C@@H](N)CCCNC(=O)C[C@@H](N)CCCN)CC(=O)N[C@@H]1[C@H](O)[C@@H](O)[C@@H](COC(N)=O)O[C@H]1/N=C1\N[C@@H]2[C@H](O)CNC(=O)[C@H]2N1`, the MIC in [1] is above 256 µg/mL; with Bacillus subtilis, 64 µg/mL (≈ 79.9 µM); in the experiment on Staphylococcus aureus, above 256 µg/mL; in the experiment on Escherichia coli, 64 µg/mL (≈ 79.9 µM); with Enterococcus faecalis it was above 256 µg/mL; against Pseudomonas aeruginosa, above 256 µg/mL. Also, the minimum inhibitory concentration (MIC) (against Morganella morganii; in experiment [2]; against Candida albicans) was above 256 µg/mL in each case.

In the case of `CC(=O)N[C@@H](CCCNC(=O)C[C@@H](N)CCCNC(=O)C[C@@H](N)CCCN)CC(=O)N[C@@H]1[C@H](O)[C@@H](O)[C@@H](COC(N)=O)O[C@H]1/N=C1\N[C@H]([C@H](O)CN)[C@@H](C(=O)O)N1`, the MIC (in experiment [1]; in the experiment on Bacillus subtilis; in the experiment on Staphylococcus aureus; with Escherichia coli; against Enterococcus faecalis; with Pseudomonas aeruginosa) was above 256 µg/mL in each case. Also, the MIC (against Morganella morganii; in experiment [2]; against Candida albicans) was above 256 µg/mL throughout.

As for `CC(=O)N[C@@H](CCCNC(=O)C[C@@H](N)CCCNC(=O)C[C@@H](N)CCCN)CC(=O)N[C@@H]1[C@H](O)[C@@H](OC(N)=O)[C@@H](CO)O[C@H]1/N=C1\N[C@H]([C@H](O)CN)[C@@H](C(=O)O)N1`, the MIC in experiment [1] was above 256 µg/mL; against Bacillus subtilis it was 64 µg/mL (≈ 78.2 µM); with Staphylococcus aureus, above 256 µg/mL; in the experiment on Escherichia coli it was 64 µg/mL (≈ 78.2 µM); against Enterococcus faecalis, above 256 µg/mL; in the experiment on Pseudomonas aeruginosa, above 256 µg/mL. The MIC (against Morganella morganii; in [2]; with Candida albicans) was above 256 µg/mL each time.

Consider `NNC(=O)c1ccncc1` [ISONIAZID], for which, in experiment [1], the MIC was 0.0625 µg/mL (≈ 0.456 µM).

As to `C[C@H]1COc2c(N3CCN(C)CC3)c(F)cc3c(=O)c(C(=O)O)cn1c23.C[C@H]1COc2c(N3CCN(C)CC3)c(F)cc3c(=O)c(C(=O)O)cn1c23.O` [LEVOFLOXACIN], the MIC in [1] amounted to 0.5 µg/mL; against Bacillus subtilis, 0.12 µg/mL; with Staphylococcus aureus, 0.12 µg/mL; against Enterococcus faecalis, 0.5 µg/mL; in the experiment on Pseudomonas aeruginosa, 0.25 µg/mL; in the experiment with Morganella morganii, 16 µg/mL. Besides, the MIC in experiment [2] is 1 µg/mL; in the experiment on Candida albicans it was above 256 µg/mL.

On to `CO[C@H]1/C=C/O[C@@]2(C)Oc3c(C)c(O)c4c(O)c(c(/C=N/N5CCN(C)CC5)c(O)c4c3C2=O)NC(=O)/C(C)=C\C=C\[C@H](C)[C@H](O)[C@@H](C)[C@@H](O)[C@@H](C)[C@H](OC(C)=O)[C@@H]1C` [RIFAMPIN], for which the MIC in experiment [1] came out at 0.0625 µg/mL (≈ 0.0759 µM).

Regarding `NCCC[C@H](N)CC(=O)NCCC[C@H](N)CC(=O)N[C@@H]1[C@H](O)[C@@H](OC(N)=O)[C@@H](CO)O[C@H]1NC1=N[C@@H]2C(=O)NC[C@@H](O)[C@H]2N1` [STREPTOTHRICIN E], the minimal inhibitory concentration (MIC) was 1 µg/mL (≈ 1.59 µM) in [1]; 1 µg/mL (≈ 1.59 µM) against Bacillus subtilis; 4 µg/mL (≈ 6.34 µM) in the experiment on Staphylococcus aureus; 16 µg/mL (≈ 25.4 µM) against Escherichia coli; 64 µg/mL (≈ 101 µM) in the experiment with Enterococcus faecalis; 64 µg/mL (≈ 101 µM) with Pseudomonas aeruginosa. Further, the MIC against Morganella morganii is 4 µg/mL (≈ 6.34 µM); in experiment [2] it was 4 µg/mL (≈ 6.34 µM); in the experiment on Candida albicans, 1 µg/mL (≈ 1.59 µM).
